In US9440938B2, “Sulfonamide derivative having PGD2 receptor antagonistic activity” (SHIONOGI & CO., LTD., priority 2005, dated 2016):
Read-outs that look alike come from different tables or passages of the source.

Experiments:
DP receptor [1] = molecular target: T1, DP receptor (Homo sapiens, UniProt Q13258); assay: cAMP assay with washed platelet (DP inhibitory activity in vitro); type: cell-based; conditions: washed human platelets, 100 nM PGD2, cAMP by HTRF
T1 construct: endogenous in cells; host or cells: washed platelets from peripheral blood of a healthy volunteer
T1 sequence (Q13258 1-359): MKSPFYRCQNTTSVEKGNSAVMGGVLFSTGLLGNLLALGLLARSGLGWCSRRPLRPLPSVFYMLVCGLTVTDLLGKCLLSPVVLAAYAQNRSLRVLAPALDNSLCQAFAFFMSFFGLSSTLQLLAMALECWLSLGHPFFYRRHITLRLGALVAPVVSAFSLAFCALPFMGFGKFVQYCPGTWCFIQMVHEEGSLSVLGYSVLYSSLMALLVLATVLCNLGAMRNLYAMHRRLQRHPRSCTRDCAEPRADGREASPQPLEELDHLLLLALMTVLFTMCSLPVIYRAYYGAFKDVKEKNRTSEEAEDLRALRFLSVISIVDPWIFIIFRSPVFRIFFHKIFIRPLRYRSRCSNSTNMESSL
Method: 1) Preparation of Platelet and a Method of cAMP Assay
30 mL of peripheral blood was collected from a healthy volunteer using a syringe containing one ninth amount of 3.8% sodium citrate. After being centrifuged at 180 g for 10 minutes at room temperature, a supernatant was collected and used as Platelet Rich Plasma (PRP). The resulting PRP was washed with wash buffer and centrifuged three times (Washed Platelet: WP) and platelets were counted by a microcell counter. WP was added to a plate in amount of 1.5×10^8/assay and the plate was treated with 3-isobutyl-1-methylxanthin (IBMX; 0.5 mM) for 5 minutes. A reaction was initiated by adding 100 nM of PGD2 5 min after an addition of a test compound. The reaction was terminated with an addition of 1N hydrochloric acid after 2 minutes and the cells were destructed using 12% triton X-100. An amount of cAMP in the supernatant was assayed by Homogeneous Trangient Fluorescence (HTRF)

DP receptor [2] = molecular target: T1, DP receptor; assay: Receptor binding assay, [3H]-PGD2, platelet membrane; conditions: [3H]-PGD2, human platelet membrane
Method: 2) Receptor Binding Assay
A prepared WP was homogenated and a membrane fraction was collected with high-speed centrifugation. A compound of the present invention or a reference compound A (No. IC-73 in WO 2003/097598) was added to the plate and [^3H]-PGD2 was also added. A platelet membrane, a protein concentration is 2 mg/mL, was added and mixed in the plate, and placed on ice for 2 hours. The reaction solution was transferred to a low protein-adsorptive filter and washed with a wash solution eight times using a cell harvester. After the final washing, water was removed sufficiently, and scintillator was added. DP inhibitory activity was investigated by measuring [^3H] by using Micro Beta.

OVA asthma model of rat = assay: Test using OVA asthma model of rat (airway hyperresponsiveness, infiltration of inflammatory cells, mucus-secretion); type: in vivo, Brown Norway (BN) Rats; conditions: po, 72 h
Method: Test Using OVA Asthma Model of Rat
Brown Norway (BN) Rats were sensitized by i.p. administration of 0.1 mg/mL of ovalbumin (OVA) and 1 mg of aluminum hydroxide gel. A solution of 1% OVA was aerosolized by ultrasonic nebulizer (NE-U17) and the rats were subjected to inhalation exposure of the aerosol for 30 minutes in an exposing chamber 12, 19, 26 and 33 days after the sensitization. One hour before the 4th exposure of the antigen, compounds of the present invention were administered in a dose of 10 mg/kg p.o. once a day for three days consecutively. In a control group, 0.5% of methyl cellulose was administered in place of the compound of the present invention.
Under pentobarbital anesthesia (80 mg/kg, i.p.), acetylcholine (3.9, 7.8, 15.6, 31.3, 62.5, 125, 250 and 500 μg/kg) was injected to jugular vein of the rats successively from a lower dose at intervals of 5 minutes three days after the fourth exposure to the antigen, and immediate contractile reaction of airways (an increase of insufflation pressure) was measured by a modified method of Konnzett & Ririssler. Inhibition rate of airway hyperresponsiveness against the control group was calculated based on area under the curve (AUC) obtained from concentration-response curve of acetylcholine.
After the measurement of increased hyperresponsive airway was completed, bronchoalveoli of the rats were washed with 5 mL of saline three times. Total cell number in the washings was counted by a hemacytometer under light microscope, and inhibition rates of infiltration of inflammatory cells against the control group were calculated. Further, mucin in the airway lavage fluid was measured by ELISA method using jacalin, a mucin-binding lectin, and the inhibition rates of mucus-secretion against the control group were calculated.

[3] = read-out: IC50 (50% DP-inhibitory concentration in the cAMP assay)
[4] = BN rats, 10 mg/kg p.o. once a day for three days, mucin in airway lavage fluid by ELISA against control group, read-out: inhibition rate (%) mucus-secretion
[5] = BN rats, 10 mg/kg p.o. once a day for three days, total cell number in bronchoalveolar washings against control group, read-out: inhibition rate (%) infiltration of inflammatory cells
[6] = read-out: inhibition rate (%) airway hyperresponsiveness

SMILES | IC50 (DP receptor [1]; [3]) | Ki (DP receptor [2]) | inhibition in vivo at 10 mg/kg (OVA asthma model of rat; [4]) | inhibition in vivo at 10 mg/kg (OVA asthma model of rat; [5]) | inhibition in vivo at 10 mg/kg (OVA asthma model of rat; [6]) | IC50 (DP receptor [1])
Cc1cc(C(=O)Nc2ccc(N3CCN(S(=O)(=O)c4ccc(OC(C)C)cc4)CC3)cc2OCC(=O)O)no1 [II-60] | 880 nM | 2600 nM |  |  |  | 
CC(C)Oc1ccc(S(=O)(=O)N2CCN(c3ccc(C(=O)NCC4CC4)c(OCC(=O)O)c3)CC2)cc1 [II-105] | 1500 nM | 16000 nM |  |  |  | 
CC(C)Oc1ccc(S(=O)(=O)N2CCN(c3cc(F)cc(OCC(=O)O)c3)CC2)cc1 [II-25] | 670 nM | 1600 nM |  |  |  | 
CC(C)Oc1ccc(S(=O)(=O)N2CCN(c3ccc(C(N)=O)c(OCC(=O)O)c3)CC2)cc1 [II-81] | 1800 nM | 2600 nM |  |  |  | 
CC(C)Oc1ccc(S(=O)(=O)N2CCN(c3ccc(C(=O)Nc4cc(C5CC5)n[nH]4)c(OCC(=O)O)c3)CC2)cc1 [II-112] | 120 nM | 9300 nM |  |  |  | 
CC(C)Oc1ccc(S(=O)(=O)N2CCN(c3ccc(NC(=O)c4ccccn4)c(OCC(=O)O)c3)CC2)cc1 [II-47] | 3100 nM | 2200 nM |  |  |  | 
CC(C)Oc1ccc(S(=O)(=O)N2CCN(c3ccc([N+](=O)[O-])c(NCC(=O)O)c3)CC2)cc1 [II-135] | 130 nM | 490 nM |  |  |  | 
CC(C)Oc1ccc(S(=O)(=O)N2CCN(c3ccc(C(=O)Nc4nncs4)c(OCC(=O)O)c3)CC2)cc1 [II-110] | 360 nM | 9800 nM |  |  |  | 
CC(C)Oc1ccc(S(=O)(=O)N2CCN(c3ccc(C(=O)Nc4nccs4)c(OCC(=O)O)c3)CC2)cc1 [II-108] | 130 nM | 13000 nM |  |  |  | 
CC(C)Oc1ccc(S(=O)(=O)N2CCN(c3cc(Cl)cc(OCC(=O)O)c3)CC2)cc1 [II-26] | 430 nM | 630 nM | 121% | 37% | 97% | 
CC(C)Oc1ccc(S(=O)(=O)N2CCN(c3ccc(-n4cccn4)c(OCC(=O)O)c3)CC2)cc1 [II-95] | 2400 nM | 4700 nM |  |  |  | 
CC(C)Oc1ccc(S(=O)(=O)N2CCN(c3ccc(NC(=O)c4ccco4)c(OCC(=O)O)c3)CC2)cc1 [II-24] | 510 nM | 1700 nM | 89% | 67% | 77% | 
CNC(=O)c1ccc(N2CCN(S(=O)(=O)c3ccc(OC(C)C)cc3)CC2)cc1OCC(=O)O [II-82] | 1100 nM | 5000 nM |  |  |  | 
CC(C)Oc1ccc(S(=O)(=O)N2CCN(c3ccc(NC(=O)c4ccccc4)c(OCC(=O)O)c3)CC2)cc1 [II-28] | 2500 nM | 3800 nM |  |  |  | 
CC(C)Oc1ccc(S(=O)(=O)N2CCN(c3ccc(-c4cnco4)c(OCC(=O)O)c3)CC2)cn1 [II-85] |  | 1700 nM |  |  |  | 510 nM
CC(C)Oc1ccc(S(=O)(=O)N2CCN(c3ccc(-c4cocn4)c(OCC(=O)O)c3)CC2)cc1 [II-96] | 290 nM | 330 nM | 52% | 46% | 105% | 
